Source: US20250352458A1, “IMPROVEMENTS IN OR RELATING TO EXTRACTS” (Givaudan SA, priority 2020, published 2025)
Values joined by “and” are separate entries in the source; they are usually repeats but may differ in a detail not shown here. Equal entries are not always repeated.

Experiments:
[1] = test system: sebaceous glands of skin explants NativeSkin; experiment: Ex vivo sebaceous gland 3D volume in skin explants; format: cell-based, human; conditions: linoleic acid at 10% in Carbopol, 7 days, vs control
Experimental: The test was carried out on 4 skin explants NativeSkin® (average 40.75 years old) from pelvic area, a full-thickness skin biopsy embedded in a solid and nourishing matrix while its epidermal surface is left in contact with air. The skin biopsy is firmly embedded in the matrix that prevents any lateral diffusion of topically applied formulations. The skin explants were treated topically once a day for 7 days in presence of linoleic acid at 10% in Carbopol Ultrez 10 in order to stimulate the lipogenesis and mimic the condition of sebum excess (stimulated condition) or treated with Carbopol only (control condition). This induction mimics a high production of sebum. In parallel, skin explants were treated in presence of Mangifera indica extract at 1% and 2% formulated in Carbopol. After treatment, skin explants were fixed in formalin. After fixation, skin explants were cleared with methanol and a mix of Benzyl Benzoate and Benzyl Alcohol. All samples were observed by fluorescence light sheet microscopy (SPIM, homemade fabrication). Stack of images were taken per sample. 3D pictures of the glands were reconstructed and the size of each sebaceous gland was quantified using Amira® software. Results were represented with the mean volume of sebaceous gland +/−standard error to the mean. […] The results are expressed in percent of the stimulated control (10% linoleic acid). […]

[2] = test system: human sebaceous glands of skin explants; experiment: Ex vivo sebum quantification, lipids of sebaceous glands by GC/MS; format: cell-based
Experimental: Skin explants from lifting of 3 donors (average 56.7 years old) were treated in systemic every day during 5 days in presence of dihydrotestosterone (DHT) at 30UM to induce an increase of lipogenesis mimicking a high production of sebum condition (stimulated condition) or left untreated (control condition). In parallel, skin explants were treated in presence of 0.5% of dibenzoyle peroxide (POB, positive reference) or with the Mangifera indica extract at 1% and 2%.
The tissues are extracted with an aqueous cocktail overnight at 4° C. They are then treated to take off the epidermis. A specific technique is used to recover the glands attached to these hair shafts.
After rinsing in an isotonic medium, the epidermis and its appendages are transferred to a watch glass. The sebaceous glands attached to the hair shaft of hair follicles are cut at the level of the pilosebaceous canal and deposited against the walls of the recovery vials. The sebaceous glands are recovered after dilaceration of the epidermal fragments. The glands are collected in a batch of 10 units. A washing of the glands is then performed to eliminate any contaminations of non-sebaceous origin. The sebum is then extracted with an organic cocktail overnight at room temperature. From this lipid extract, purification was carried out in order to isolate the different classes of lipids.
The identification and quantification of the different classes of lipids was realized by GC/MS.
The results are expressed in percent of the stimulated control (Untreated+DHT 30 μM). Bonferroni test multi comparison was used to do statistical analysis with #p<0.1, *p<0.05, **p<0.01, ***p<0.001.

[3] = test system: human sebocyte cell line SEBO662AR; experiment: In vitro lipogenesis inhibition in human sebocytes cell line (Bodipy lipid labeling); format: cell-based
Experimental: The sebocytes were seeded in 96-well plates (50 000 cells/well) and cultured for 24 hours in culture medium. The medium was then removed and replaced by assay medium containing the tested products including Mangifera indica extract at 0.3%, Mangiferin alone or pooled active molecules (four main phytomarkers) at their equivalent dosage in the extract at 0.3%. In the control assay medium, no product was contained. The cells were preincubated for 4 hours at those conditions. Then, the lipogenic mix (containing vitamin C, vitamin D3, insulin and calcium, and no androgens) was added in order to mimic the condition of excess of sebum, and the cells were incubated for 7 days. At mid-term, i.e. after 3 days of incubation, half of the medium was removed and the treatments were renewed (including lipogenic mix stimulation). […]
At the end of the incubation, the cells were rinsed, fixed and permeabilized. […] The labeling was quantified by the measurement of the fluorescence intensity normalized to the total number of cells (Integration of numerical data with the Developer Toolbox 1.5, GE Healthcare software). Results were expressed as Fluorescence intensity normalized to the number of cells, % stimulated control and % inhibition. The fluorescence intensity was analyzed exclusively in the lipid droplets (image analysis program based on object segmentation). […]

hiPSC derived sebocytes = experiment: In vitro lipogenesis inhibition in sebocytes derived from iPS with three ethnicities; format: cell-based, human; conditions: 10 μM (RA10), each ethnicity, arachidonic acid induced
[4] = test system: H. influenzae (ATCC 49766); experiment: MIC evaluation, optical density and percentage of inhibition; format: cell-based, Haemophilus influenza
Excerpt: The minimum inhibitory concentration of the following active ingredients has been assessed: • Mangifera indica extract (in propanediol/water 75/25); • Vehicule (propanediol/water 75/25, expressed as Activolo3-75%); • “Pool Mangiferin” which is the pure molecule mangiferin at the same concentration in the Mangifera indica extract in propanediol/water 75/25. • “Pool Mangifera” with is the mix of the 4 molecules (mangiferin, maclurin-C-glucoside, irifluophenone-C-glucoside, gallotanin) at the same concentration in the Mangifera indica extract in propane-diol/water 75/25.
H. influenzae (ATCC 49766) was cultured in Mueller Hinton broth as recommended by ATCC with 5% CO2. The Bacterial concentration was adjusted in Mueller Hinton broth to obtain a solution at 1.106 CFU/ml (5.104 CFU/well) (launch of culture at D-2). […] Two day later, the inhibition of H. influenzae was evaluated using Colony counter IUL instruments, flash and go model (reading at D2).
Concentrations are expressed in % (m/v).
The diluted bacterial suspension was added to columns 2 to 12. RCB medium was added to column 1 as negative control.
Optical density was determined, which correlates to the bacterial growth. Thereafter, an inhibition value (%) was determined for each condition using the following formula: […]
The percentage of inhibition must be higher or equal than 90% to reach the MIC.

[5] = test system: Propionibacterium acnes (C. acnes) phylotype IA1 ATCC 6919; experiment: as above; format: cell-based
Excerpt: (§1) The minimum inhibitory concentration of the following active ingredients has been assessed: • Mangifera indica extract (in propanediol/water 75/25); • Vehicule (propanediol/water 75/25, expressed as Activolo3-75%); • “Pool Mangiferin” which is the pure molecule mangiferin at the same concentration in the Mangifera indica extract in propanediol/water 75/25. • “Pool Mangifera” with is the mix of the 4 molecules (mangiferin, maclurin-C-glucoside, irifluophenone-C-glucoside, gallotanin) at the same concentration in the Mangifera indica extract in propane-diol/water 75/25. […] After two days, the bacterial concentration was adjusted in reinforced clostridial broth to obtain a solution at 1.106 CFU/ml (5.104 CFU/well). […] Concentrations are expressed in % (m/v). […] The diluted bacterial suspension was added to columns 2 to 12. RCB medium was added to column 1 as negative control. Optical density was determined, which correlates to the bacterial growth.

[6] = test system: C. granulosum (ATCC 25564); experiment: as above; format: cell-based, Cutibacterium granulosum
Excerpt: as §1

S. aureus (ATCC 33592) = experiment: as above; format: cell-based, Staphylococcus aureus
Excerpt: The minimum inhibitory concentration of the following active ingredients has been assessed: • Mangifera indica extract (in propanediol/water 75/25); • Vehicule (propanediol/water 75/25, expressed as Activolo3-75%); • “Pool Mangiferin” which is the pure molecule mangiferin at the same concentration in the Mangifera indica extract in propanediol/water 75/25. • “Pool Mangifera” with is the mix of the 4 molecules (mangiferin, maclurin-C-glucoside, irifluophenone-C-glucoside, gallotanin) at the same concentration in the Mangifera indica extract in propane-diol/water 75/25. S. aureus: The day before the experiment S. aureus (ATCC 33592) was plated and grown overnight at 37° C. Colonies were resuspended in 5 mL of TSB (Tryptic Soy Broth) to obtain a 0.5 McFarland D O (≈1.10^8 CFU/ml) (launch of culture at D-1). […] Concentrations are expressed in % (m/v). […] The diluted bacterial suspension was added to columns 2 to 12. RCB medium was added to column 1 as negative control. Optical density was determined, which correlates to the bacterial growth.

[7] = POB at 0.5%, DHT stimulated, 5 days
[8] = DHT 30 μM stimulation vs untreated
[9] = Ciprofloxacin 16 10^−4 % (m/v), plate col. 8-12

Which “change of 3D volume of sebaceous glands” value [1] does the source give for `CCCCC/C=C\C/C=C\CCCCCCCC(=O)O` [Linoleic acid, linoleic acid] here?
The value was “+37%”.

Which results are given for `O=C(OOC(=O)c1ccccc1)c1ccccc1` [POB, dibenzoyle peroxide]?
free fatty acids content of sebum [2, 7]: significant reduction; squalene content of sebum [2, 7]: significant reduction; triglycerides content of sebum [2, 7]: significant reduction

Which “reduction of lipogenesis compared with lipogenic mix condition” value ([3]; Mangiferin at the same amount as available in the extracts) does the source give for `O=c1c2cc(O)c(O)cc2oc2cc(O)c([C@@H]3O[C@H](CO)[C@@H](O)[C@H](O)[C@H]3O)c(O)c12` [Mangiferin] here?
The value was −22%.

What does the source list for `C[C@]12CCC(=O)C[C@@H]1CC[C@@H]1[C@@H]2CC[C@]2(C)[C@@H](O)CC[C@@H]12` [DHT, dihydrotestosterone]?
cholesterol content of sebum [2, 8]: no effect; free fatty acids content of sebum [2, 8]: significant increase; squalene content of sebum [2, 8]: significant increase; triglycerides content of sebum [2, 8]: significant increase

How did the “reduction of lipid production compared with lipogenic mix condition” value ([3]; Olumacostat glasaretyl at 1 μm, 7 days) turn out when `CCCCCCCCCCCCCCOc1ccc(C(=O)OCC(=O)N(C)CC(=O)OCC)o1` [Olumacostat glasaretil, reference compound] was run?
Its value is −37%.

How did the lipids production (hiPSC derived sebocytes) turn out when `CC1=C(/C=C/C(C)=C/C=C/C(C)=C\C(=O)O)C(C)(C)CCC1` [13-cis-retinoic-acid] was run?
The lipids production was “significant reduction”.

`O=C(O)c1cn(C2CC2)c2cc(N3CCNCC3)c(F)cc2c1=O` [Ciprofloxacin, reference compound] was tested. Which “Percentage of inhibition, H. influenza” value [4, 9] did it give?
The value was 99.7% and 99.0%.

And the “inhibition of H. influenza” value ([4]; Ciprofloxacin, text of Table 6b)?
Its value is 99%.

And the “Percentage of inhibition, C. acnes” value [5, 9]?
Its value is 99.3% and 98.8%.

And the “inhibition of P. acnes (FIG. 9)” value ([5]; Ciprofloxacin from 1×10^−4%)?
The value was 99%.

And the “inhibition of P. acnes” value ([5]; Ciprofloxacin, text of Table 3b)?
The value was 99%.

And the “Percentage of inhibition, C. granulosum” value [6, 9]?
The value was 97.8% and 99.0% and 98.5%.

And the “inhibition of C. granulosum” value ([6]; Ciprofloxacin, text of Table 4b)?
The value was 99%.

And the “Percentage of inhibition, S. aureus” value (S. aureus (ATCC 33592); [9])?
The value was 99.4%.

And the “inhibition of S. aureus” value (S. aureus (ATCC 33592); Ciprofloxacin, text of Table 5b)?
The value was 99%.
